EC50 and Emax data for five compounds are collected here from US20240294595A1, “GLYCOPEPTIDES AND USES THEREOF” (Arizona Board of Regents on Behalf of the University of …, priority 2013, published 2024).

Type in all cases: cell-based
Experiment [1] deals with T1, VPAC1 (Homo sapiens, UniProt P32241).
T1 sequence (P32241 31-457): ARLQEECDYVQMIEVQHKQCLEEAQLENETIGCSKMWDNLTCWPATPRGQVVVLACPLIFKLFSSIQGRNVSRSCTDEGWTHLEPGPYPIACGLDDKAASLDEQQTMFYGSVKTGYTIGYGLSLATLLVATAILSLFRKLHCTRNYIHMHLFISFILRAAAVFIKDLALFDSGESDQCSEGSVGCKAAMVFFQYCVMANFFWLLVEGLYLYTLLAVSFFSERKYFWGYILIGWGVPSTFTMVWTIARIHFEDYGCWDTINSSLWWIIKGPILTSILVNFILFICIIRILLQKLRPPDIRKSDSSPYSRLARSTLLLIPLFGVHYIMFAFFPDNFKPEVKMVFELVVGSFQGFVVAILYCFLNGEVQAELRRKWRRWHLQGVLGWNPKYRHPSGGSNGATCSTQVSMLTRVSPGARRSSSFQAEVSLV
Briefly: VPAC1 agonist data (Table 2).

Experiment [2] addresses T2, VPAC2 (Homo sapiens, UniProt P41587).
T2 sequence (P41587 24-438): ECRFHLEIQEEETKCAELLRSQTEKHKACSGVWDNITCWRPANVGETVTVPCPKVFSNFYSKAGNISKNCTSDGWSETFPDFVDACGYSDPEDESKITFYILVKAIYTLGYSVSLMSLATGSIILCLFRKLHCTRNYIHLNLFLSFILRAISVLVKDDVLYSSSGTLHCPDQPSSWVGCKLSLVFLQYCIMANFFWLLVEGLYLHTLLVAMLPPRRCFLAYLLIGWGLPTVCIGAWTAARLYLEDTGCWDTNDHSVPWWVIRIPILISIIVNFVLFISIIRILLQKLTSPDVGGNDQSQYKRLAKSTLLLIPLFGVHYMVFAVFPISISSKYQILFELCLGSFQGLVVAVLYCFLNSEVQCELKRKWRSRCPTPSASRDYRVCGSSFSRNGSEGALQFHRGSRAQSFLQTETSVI
Briefly: VPAC2 agonist data (Table 2).

For experiment [3], the target named is T3, PAC1 (Homo sapiens, UniProt P41586).
T3 sequence (P41586 21-468): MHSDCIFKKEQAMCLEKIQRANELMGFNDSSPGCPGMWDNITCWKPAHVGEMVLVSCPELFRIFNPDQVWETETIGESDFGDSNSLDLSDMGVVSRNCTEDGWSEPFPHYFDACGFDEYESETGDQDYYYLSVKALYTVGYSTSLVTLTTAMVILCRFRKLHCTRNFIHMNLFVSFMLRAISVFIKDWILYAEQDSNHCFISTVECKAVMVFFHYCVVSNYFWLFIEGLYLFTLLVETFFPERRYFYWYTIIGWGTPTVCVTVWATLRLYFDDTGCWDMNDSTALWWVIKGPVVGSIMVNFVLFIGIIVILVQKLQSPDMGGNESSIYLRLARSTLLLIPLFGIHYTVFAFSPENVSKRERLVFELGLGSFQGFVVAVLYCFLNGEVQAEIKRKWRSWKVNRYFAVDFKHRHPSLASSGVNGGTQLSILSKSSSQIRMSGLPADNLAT
Briefly: PAC1 agonist data (Table 2). Set-up: host or cells: CHO (clonal line PAC1-CHO). As to the method:
A custom DNA clone of the human PAC1 gene with 3 hemagglutinin (HA) tags inserted 3′ to the signal peptide sequence (to avoid proteolytic loss) was obtained from Genecopoeia (Rockville, MD). The construct was electroporated into Chinese Hamster Ovary (CHO) cells, and selected for with 500 μg/mL of G418. The resulting population was screened for high expressing clones, and one such clone selected for further analysis. […] This cell line was used for all molecular pharmacology experiments. The cells were maintained in DMEM/F12 with 10% heat-inactivated FBS, 1× penicillin/streptomycin, and 500 μg/mL G418, at 37° C. and 5% CO2.
All molecular pharmacology experiments were carried out using a FLIPR Tetra from Molecular Devices (Sunnyvale, CA), set to image calcium flux using the manufacturer's recommended settings and protocols. The day before an experiment, the PAC1-CHO cells were split into 384 well black walled, clear bottom microplates, 10,000 cells per well. The cells were recovered overnight in growth medium (as above). The next day, the growth medium was replaced with Calcium 6 dye (Molecular Devices) using the manufacturer recommended buffer with 2.5 mM probenecid. The cells were incubated for 2 hours in the culture incubator, and removed during the last 15 minutes to allow equilibration to room temperature. Compound as indicated below was added to the cells using a 384 tip block, with real time monitoring before, during, and 15 minutes after compound addition. The resulting calcium flux was recorded, and the maximum-minimum response over the entire observation time calculated and reported as the mean±SEM (4 wells per point).
For agonist mode experiments, compound was added in an 11 point concentration curve, with a vehicle control (buffer). […] The response was analyzed using a 3 variable non-linear curve fit, and the EC50 (nM) and EMax (%) calculated and reported (Prism, GraphPad, La Jolla, CA).

Molecules are shown by their SMILES. Where a SMILES comes first, the peptide text is derived from it. [ ]: non-standard residue; d: D form. The star is where a group is joined. βGlc = OC[C@H]1O[C@@H](*)[C@H](O)[C@@H](O)[C@@H]1O; Nle = CCCC[C@H](N)C(=O)O

For `CCCC[C@H](NC(=O)[C@H](CCC(N)=O)NC(=O)[C@H](CCCCN)NC(=O)[C@H](CCCNC(=N)N)NC(=O)[C@H](Cc1ccc(O)cc1)NC(=O)[C@H](CCCNC(=N)N)NC(=O)[C@H](CO)NC(=O)[C@H](Cc1ccc(O)cc1)NC(=O)[C@H](CO)NC(=O)[C@H](CC(=O)O)NC(=O)[C@@H](NC(=O)[C@H](Cc1ccccc1)NC(=O)[C@@H](NC(=O)CNC(=O)[C@H](CC(=O)O)NC(=O)[C@@H](CO)NC(=O)[C@@H](N)Cc1c[nH]cn1)[C@@H](C)CC)[C@@H](C)O)C(=O)N[C@@H](C)C(=O)N[C@H](C(=O)N[C@@H](CCCCN)C(=O)N[C@@H](CCCCN)C(=O)N[C@@H](Cc1ccc(O)cc1)C(=O)N[C@@H](CC(C)C)C(=O)N[C@@H](C)C(=O)N[C@@H](C)C(=O)N[C@H](C(=O)N[C@@H](CO[C@@H]1O[C@H](CO)[C@@H](O)[C@H](O)[C@H]1O)C(N)=O)C(C)C)C(C)C`, the EC50 in experiment [1] came out at 4.8 nM; in experiment [2] it was 654 nM; in experiment [3] it was 54.5 nM. The Emax is 90% in experiment [1], 107% in experiment [2] and 86% in experiment [3].
With `CCCC[C@H](NC(=O)[C@H](CCC(N)=O)NC(=O)[C@H](CCCCN)NC(=O)[C@H](CCCNC(=N)N)NC(=O)[C@H](Cc1ccc(O)cc1)NC(=O)[C@H](CCCNC(=N)N)NC(=O)[C@H](CO)NC(=O)[C@H](Cc1ccc(O)cc1)NC(=O)[C@H](CO)NC(=O)[C@H](CC(=O)O)NC(=O)[C@@H](NC(=O)[C@H](Cc1ccccc1)NC(=O)[C@@H](NC(=O)CNC(=O)[C@H](CC(=O)O)NC(=O)[C@@H](CO)NC(=O)[C@@H](N)Cc1c[nH]cn1)[C@@H](C)CC)[C@@H](C)O)C(=O)N[C@@H](C)C(=O)N[C@H](C(=O)N[C@@H](CCCCN)C(=O)N[C@@H](CCCCN)C(=O)N[C@@H](Cc1ccc(O)cc1)C(=O)N[C@@H](CC(C)C)C(=O)N[C@@H](C)C(=O)N[C@@H](C)C(=O)N[C@H](C(=O)N[C@@H](CC(C)C)C(=O)N[C@@H](CO[C@@H]1O[C@H](CO)[C@@H](O)[C@H](O)[C@H]1O)C(N)=O)C(C)C)C(C)C`, the EC50 in experiment [1] turned out to be 1.3 nM; in experiment [2] it was 241 nM; in experiment [3], 25.5 nM. For the same compound, the Emax in experiment [1] was found to be 90%; in experiment [2] it was 104%; in experiment [3], 85%.
Regarding `CCCC[C@H](NC(=O)[C@H](CCC(N)=O)NC(=O)[C@H](CCCCN)NC(=O)[C@H](CCCNC(=N)N)NC(=O)[C@H](Cc1ccc(O)cc1)NC(=O)[C@H](CCCNC(=N)N)NC(=O)[C@H](CO)NC(=O)[C@H](Cc1ccc(O)cc1)NC(=O)[C@H](CO)NC(=O)[C@H](CC(=O)O)NC(=O)[C@H](C)NC(=O)[C@H](Cc1ccccc1)NC(=O)[C@@H](NC(=O)CNC(=O)[C@H](CC(=O)O)NC(=O)[C@@H](CO)NC(=O)[C@@H](N)Cc1c[nH]cn1)[C@@H](C)CC)C(=O)N[C@@H](C)C(=O)N[C@H](C(=O)N[C@@H](CCCCN)C(=O)N[C@@H](CCCCN)C(=O)N[C@@H](Cc1ccc(O)cc1)C(=O)N[C@@H](CC(C)C)C(=O)N[C@@H](C)C(=O)N[C@@H](C)C(=O)N[C@H](C(=O)N[C@@H](CO[C@@H]1O[C@H](CO)[C@@H](O)[C@H](O)[C@H]1O)C(N)=O)C(C)C)C(C)C` (H-H[dS]DGIFADSYSRYRKQ[Nle]AVKKYLAAVS(βGlc)-NH2; C-terminus assumed), in experiment [1], a half-maximal effect (EC50) was put at 1370 nM and the Emax amounted to 85%.
For `CCCC[C@H](NC(=O)[C@H](CCC(N)=O)NC(=O)[C@H](CCCCN)NC(=O)[C@H](CCCNC(=N)N)NC(=O)[C@H](Cc1ccc(O)cc1)NC(=O)[C@H](CCCNC(=N)N)NC(=O)[C@H](CO)NC(=O)[C@H](Cc1ccc(O)cc1)NC(=O)[C@H](CO)NC(=O)[C@H](CC(=O)O)NC(=O)[C@H](C)NC(=O)[C@H](Cc1ccccc1)NC(=O)[C@@H](NC(=O)CNC(=O)[C@H](CC(=O)O)NC(=O)[C@@H](CO)NC(=O)[C@@H](N)Cc1c[nH]cn1)[C@@H](C)CC)C(=O)N[C@@H](C)C(=O)N[C@H](C(=O)N[C@@H](CCCCN)C(=O)N[C@@H](CCCCN)C(=O)N[C@@H](Cc1ccc(O)cc1)C(=O)N[C@@H](CC(C)C)C(=O)N[C@@H](C)C(=O)N[C@@H](C)C(=O)N[C@H](C(=O)N[C@@H](CO[C@@H]1O[C@H](CO)[C@@H](O)[C@H](O)[C@H]1O)C(=O)N[C@@H](CC(C)C)C(N)=O)C(C)C)C(C)C` (H-H[dS]DGIFADSYSRYRKQ[Nle]AVKKYLAAVS(βGlc)L-NH2; C-terminus assumed) the same measures were 1620 nM and 78%.
Turning to `CCCC[C@H](NC(=O)[C@H](CCC(N)=O)NC(=O)[C@H](CCCCN)NC(=O)[C@H](CCCNC(=N)N)NC(=O)[C@H](Cc1ccc(O)cc1)NC(=O)[C@H](CCCNC(=N)N)NC(=O)[C@H](CO)NC(=O)[C@H](Cc1ccc(O)cc1)NC(=O)[C@H](CO)NC(=O)[C@H](CC(=O)O)NC(=O)[C@@H](NC(=O)[C@H](Cc1ccccc1)NC(=O)[C@@H](NC(=O)CNC(=O)[C@H](CC(=O)O)NC(=O)[C@@H](CO)NC(=O)[C@@H](N)Cc1c[nH]cn1)[C@@H](C)CC)[C@@H](C)O)C(=O)N[C@@H](C)C(=O)N[C@H](C(=O)N[C@@H](CCCCN)C(=O)N[C@@H](CCCCN)C(=O)N[C@@H](Cc1ccc(O)cc1)C(=O)N[C@@H](CC(C)C)C(=O)N[C@@H](C)C(=O)N[C@@H](C)C(=O)N[C@@H](CC(C)C)C(=O)N[C@@H](CO[C@@H]1O[C@H](CO)[C@@H](O)[C@H](O)[C@H]1O)C(=O)N[C@@H](CC(C)C)C(N)=O)C(C)C` (H-H[dS]DGIFTDSYSRYRKQ[Nle]AVKKYLAALS(βGlc)L-NH2; C-terminus assumed), the EC50 was 5.9 nM in experiment [1], over 2500 nM in experiment [2] and over 250 nM in experiment [3]. Also, the Emax is 93% in experiment [1], -95% in experiment [2] and -79% in experiment [3].
